The results in this text go back to ChEMBL document CHEMBL1909046, “DrugMatrix in vitro pharmacology data”.

Chain of Substance-P receptor (P25103 whole entry): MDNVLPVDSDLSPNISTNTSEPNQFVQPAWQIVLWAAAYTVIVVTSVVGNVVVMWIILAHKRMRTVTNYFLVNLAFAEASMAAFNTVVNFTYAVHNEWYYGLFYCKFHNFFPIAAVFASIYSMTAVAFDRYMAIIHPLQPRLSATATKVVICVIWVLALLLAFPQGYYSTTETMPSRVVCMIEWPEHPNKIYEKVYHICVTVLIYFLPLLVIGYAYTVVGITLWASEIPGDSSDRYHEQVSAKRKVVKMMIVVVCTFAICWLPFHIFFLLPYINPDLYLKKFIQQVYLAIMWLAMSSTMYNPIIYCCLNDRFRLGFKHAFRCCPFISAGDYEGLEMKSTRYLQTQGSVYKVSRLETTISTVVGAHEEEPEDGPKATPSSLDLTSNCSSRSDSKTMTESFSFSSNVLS
Chain of Receptor tyrosine-protein kinase erbB-2 (P04626 whole entry): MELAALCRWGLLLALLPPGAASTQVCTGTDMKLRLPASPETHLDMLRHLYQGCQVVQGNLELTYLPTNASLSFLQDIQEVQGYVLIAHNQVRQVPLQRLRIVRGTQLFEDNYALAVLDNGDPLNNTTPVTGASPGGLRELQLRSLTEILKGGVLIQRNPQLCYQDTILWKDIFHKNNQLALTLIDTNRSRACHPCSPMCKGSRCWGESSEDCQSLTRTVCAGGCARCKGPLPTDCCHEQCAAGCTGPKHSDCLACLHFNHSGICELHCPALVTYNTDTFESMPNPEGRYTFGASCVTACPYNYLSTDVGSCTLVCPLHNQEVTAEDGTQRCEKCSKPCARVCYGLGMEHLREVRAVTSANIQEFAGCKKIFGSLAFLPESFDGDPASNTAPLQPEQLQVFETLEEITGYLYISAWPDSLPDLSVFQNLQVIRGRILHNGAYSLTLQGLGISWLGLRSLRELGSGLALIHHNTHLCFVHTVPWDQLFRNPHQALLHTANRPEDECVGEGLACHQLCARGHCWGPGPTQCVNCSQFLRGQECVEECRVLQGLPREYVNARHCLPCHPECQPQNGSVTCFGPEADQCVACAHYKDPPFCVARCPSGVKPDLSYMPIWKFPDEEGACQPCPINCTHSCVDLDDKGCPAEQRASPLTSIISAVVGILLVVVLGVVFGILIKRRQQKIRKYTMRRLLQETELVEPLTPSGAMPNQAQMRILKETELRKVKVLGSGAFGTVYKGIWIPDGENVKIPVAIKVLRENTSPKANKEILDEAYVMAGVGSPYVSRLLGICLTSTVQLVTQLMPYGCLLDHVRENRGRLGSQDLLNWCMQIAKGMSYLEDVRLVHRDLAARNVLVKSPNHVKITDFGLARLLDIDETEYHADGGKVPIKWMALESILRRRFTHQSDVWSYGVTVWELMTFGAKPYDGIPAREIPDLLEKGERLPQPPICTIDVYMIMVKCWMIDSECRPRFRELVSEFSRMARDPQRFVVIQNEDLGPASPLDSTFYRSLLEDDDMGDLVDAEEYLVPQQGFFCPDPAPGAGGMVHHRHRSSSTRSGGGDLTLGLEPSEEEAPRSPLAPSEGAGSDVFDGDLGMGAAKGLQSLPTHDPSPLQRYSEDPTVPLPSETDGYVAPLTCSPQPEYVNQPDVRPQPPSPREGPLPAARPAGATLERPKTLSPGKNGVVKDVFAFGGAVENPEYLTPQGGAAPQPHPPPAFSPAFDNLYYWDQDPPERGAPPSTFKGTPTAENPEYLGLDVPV
Chain of 5-hydroxytryptamine receptor 4 (O70528 whole entry): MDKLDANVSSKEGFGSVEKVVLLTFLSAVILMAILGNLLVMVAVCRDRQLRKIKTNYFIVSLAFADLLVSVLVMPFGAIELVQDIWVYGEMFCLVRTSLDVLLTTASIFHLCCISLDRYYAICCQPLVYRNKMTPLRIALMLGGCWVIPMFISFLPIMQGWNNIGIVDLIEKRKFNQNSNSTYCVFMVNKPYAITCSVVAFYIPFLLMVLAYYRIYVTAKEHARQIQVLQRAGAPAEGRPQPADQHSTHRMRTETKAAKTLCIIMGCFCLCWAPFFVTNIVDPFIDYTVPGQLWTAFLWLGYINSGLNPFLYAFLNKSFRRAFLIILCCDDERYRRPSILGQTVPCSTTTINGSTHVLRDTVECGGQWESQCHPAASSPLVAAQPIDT
Chain of Acetylcholinesterase (P22303 whole entry): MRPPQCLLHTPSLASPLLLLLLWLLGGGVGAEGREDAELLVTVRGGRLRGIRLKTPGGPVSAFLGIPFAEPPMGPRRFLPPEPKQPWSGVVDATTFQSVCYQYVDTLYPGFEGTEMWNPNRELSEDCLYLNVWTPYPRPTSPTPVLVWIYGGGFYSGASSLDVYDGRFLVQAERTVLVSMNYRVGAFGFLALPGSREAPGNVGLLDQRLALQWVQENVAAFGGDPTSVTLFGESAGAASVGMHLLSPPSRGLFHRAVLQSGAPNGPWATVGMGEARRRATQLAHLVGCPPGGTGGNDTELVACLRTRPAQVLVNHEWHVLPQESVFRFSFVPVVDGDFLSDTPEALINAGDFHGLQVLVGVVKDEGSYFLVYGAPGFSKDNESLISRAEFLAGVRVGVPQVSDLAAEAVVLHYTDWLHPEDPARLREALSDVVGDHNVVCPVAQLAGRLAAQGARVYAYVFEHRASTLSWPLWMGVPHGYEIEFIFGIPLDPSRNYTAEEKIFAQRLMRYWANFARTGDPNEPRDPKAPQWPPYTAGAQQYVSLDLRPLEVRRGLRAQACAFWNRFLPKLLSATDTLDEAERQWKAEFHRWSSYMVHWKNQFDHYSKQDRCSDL

One experiment concerns the target 5-hydroxytryptamine receptor 4 (Cavia porcellus, UniProt O70528). Further: in other assays of this panel Not Active means under 50% inhibition at 10 µM.
Assay: not given
Conditions: not given
It counts as cell membranes, Dunkin-Hartley, Striatum, Membrane.
By IC50 is commonly meant the concentration that gives 50% inhibition. With `O=C(O)c1cccnc1` [NIACIN], the IC50 result is “Not Active”.

Regarding `CNC(=C[N+](=O)[O-])NCCSCc1csc(CN(C)C)n1` [NIZATIDINE], the IC50 result is on record as “Not Active”.

With `C[C@]12C/C(=C/O)C(=O)C[C@@H]1CC[C@@H]1[C@@H]2CC[C@@]2(C)[C@H]1CC[C@]2(C)O` [OXYMETHOLONE], the IC50 entry was “Not Active”.

As for `CC(C)(CO)C(O)C(=O)NCCCO` (stereo not drawn) [PANTHENOL], the IC50 entry is “Not Active”.

With `OCCN1CCN(CCCN2c3ccccc3Sc3ccc(Cl)cc32)CC1` [PERPHENAZINE], the 50% inhibitory concentration (IC50) result was “Not Active”.

As to `CCCCC1C(=O)N(c2ccccc2)N(c2ccccc2)C1=O` [PHENYLBUTAZONE], the IC50 result is recorded as “Not Active”.

`Cc1cccc(Nc2cc(Cl)nc(SCC(=O)O)n2)c1C` [PIRINIXIC ACID]: the IC50 entry is listed as “Not Active”.

Regarding `CC[C@H](C)C(=O)O[C@H]1C[C@H](O)C=C2C=C[C@H](C)[C@H](CC[C@@H](O)C[C@@H](O)CC(=O)O)[C@H]21` [PRAVASTATIN], the IC50 result was “Not Active”.

Consider `CC(C)(Sc1cc(C(C)(C)C)c(O)c(C(C)(C)C)c1)Sc1cc(C(C)(C)C)c(O)c(C(C)(C)C)c1` [PROBUCOL], for which the IC50 result was “Not Active”.

A further experiment addresses Receptor tyrosine-protein kinase erbB-2 (Homo sapiens, UniProt P04626). Description: biochemical. The experiment is classed as cell-based, Insect cells. Conditions: insect cells.
Turning to `O=C(O)c1cccnc1` [NIACIN], the IC50 entry is given as “Not Active”.

Regarding `CNC(=C[N+](=O)[O-])NCCSCc1csc(CN(C)C)n1` [NIZATIDINE], the IC50 entry is on record as “Not Active”.

In the case of `C[C@]12C/C(=C/O)C(=O)C[C@@H]1CC[C@@H]1[C@@H]2CC[C@@]2(C)[C@H]1CC[C@]2(C)O` [OXYMETHOLONE], the IC50 entry was “Not Active”.

On to `CC(C)(CO)C(O)C(=O)NCCCO` (stereo not drawn) [PANTHENOL], for which the IC50 result is listed as “Not Active”.

As to `OCCN1CCN(CCCN2c3ccccc3Sc3ccc(Cl)cc32)CC1` [PERPHENAZINE], the IC50 entry is “Not Active”.

Regarding `CCCCC1C(=O)N(c2ccccc2)N(c2ccccc2)C1=O` [PHENYLBUTAZONE], the IC50 entry is recorded as “Not Active”.

In the case of `Cc1cccc(Nc2cc(Cl)nc(SCC(=O)O)n2)c1C` [PIRINIXIC ACID], the IC50 entry is reported as “Not Active”.

Consider `CC[C@H](C)C(=O)O[C@H]1C[C@H](O)C=C2C=C[C@H](C)[C@H](CC[C@@H](O)C[C@@H](O)CC(=O)O)[C@H]21` [PRAVASTATIN], for which the IC50 result is listed as “Not Active”.

With `CC(C)(Sc1cc(C(C)(C)C)c(O)c(C(C)(C)C)c1)Sc1cc(C(C)(C)C)c(O)c(C(C)(C)C)c1` [PROBUCOL], the IC50 result was “Not Active”.

Another experiment has as its target Substance-P receptor (Homo sapiens, UniProt P25103). Further: in other assays of this panel Not Active means under 50% inhibition at 10 µM.
Assay: not given
Conditions: cho. It counts as cell membranes, Membrane.
Consider `O=C(O)c1cccnc1` [NIACIN], for which the IC50 entry is “Not Active”.

As for `CNC(=C[N+](=O)[O-])NCCSCc1csc(CN(C)C)n1` [NIZATIDINE], the IC50 entry was “Not Active”.

As to `C[C@]12C/C(=C/O)C(=O)C[C@@H]1CC[C@@H]1[C@@H]2CC[C@@]2(C)[C@H]1CC[C@]2(C)O` [OXYMETHOLONE], the IC50 entry is on record as “Not Active”.

On to `CC(C)(CO)C(O)C(=O)NCCCO` (stereo not drawn) [PANTHENOL], for which the IC50 result was “Not Active”.

Consider `OCCN1CCN(CCCN2c3ccccc3Sc3ccc(Cl)cc32)CC1` [PERPHENAZINE], for which the IC50 entry is given as “Not Active”.

`CCCCC1C(=O)N(c2ccccc2)N(c2ccccc2)C1=O` [PHENYLBUTAZONE]: the IC50 result is listed as “Not Active”.

Turning to `Cc1cccc(Nc2cc(Cl)nc(SCC(=O)O)n2)c1C` [PIRINIXIC ACID], the IC50 result is “Not Active”.

Regarding `CC[C@H](C)C(=O)O[C@H]1C[C@H](O)C=C2C=C[C@H](C)[C@H](CC[C@@H](O)C[C@@H](O)CC(=O)O)[C@H]21` [PRAVASTATIN], the IC50 entry was “Not Active”.

Turning to `CC(C)(Sc1cc(C(C)(C)C)c(O)c(C(C)(C)C)c1)Sc1cc(C(C)(C)C)c(O)c(C(C)(C)C)c1` [PROBUCOL], the IC50 result was “Not Active”.

Another experiment addresses Acetylcholinesterase (Homo sapiens, UniProt P22303). Description: DRUGMATRIX: Acetylcholinesterase enzyme inhibition (substrate: acetylthiocholine). The settings on record: Not Active = under 50% inhibition at 10 µM; read-out: IC50. The experiment is classed as cell-based, HEK293.
Take `CNC(=C[N+](=O)[O-])NCCSCc1csc(CN(C)C)n1` [NIZATIDINE]: the IC50 was found to be 5.61 µM.

Staying with this experiment, now noted: hek293; Not Active = under 50% inhibition at 10 µM.
On to `O=C(O)c1cccnc1` [NIACIN], for which the IC50 entry is given as “Not Active”.

Turning to `C[C@]12C/C(=C/O)C(=O)C[C@@H]1CC[C@@H]1[C@@H]2CC[C@@]2(C)[C@H]1CC[C@]2(C)O` [OXYMETHOLONE], the IC50 result was “Not Active”.

As for `CC(C)(CO)C(O)C(=O)NCCCO` (stereo not drawn) [PANTHENOL], the IC50 entry is “Not Active”.

Consider `OCCN1CCN(CCCN2c3ccccc3Sc3ccc(Cl)cc32)CC1` [PERPHENAZINE], for which the IC50 result is recorded as “Not Active”.

Take `CCCCC1C(=O)N(c2ccccc2)N(c2ccccc2)C1=O` [PHENYLBUTAZONE]: the IC50 entry was “Not Active”.

As to `Cc1cccc(Nc2cc(Cl)nc(SCC(=O)O)n2)c1C` [PIRINIXIC ACID], the IC50 entry is given as “Not Active”.

Turning to `CC[C@H](C)C(=O)O[C@H]1C[C@H](O)C=C2C=C[C@H](C)[C@H](CC[C@@H](O)C[C@@H](O)CC(=O)O)[C@H]21` [PRAVASTATIN], the IC50 entry was “Not Active”.

As to `CC(C)(Sc1cc(C(C)(C)C)c(O)c(C(C)(C)C)c1)Sc1cc(C(C)(C)C)c(O)c(C(C)(C)C)c1` [PROBUCOL], the IC50 result was “Not Active”.

The target in a further experiment is T1, Neuropeptide Y receptor type 2 (Homo sapiens, UniProt P49146). Further: in other assays of this panel Not Active means under 50% inhibition at 10 µM.
T1 sequence (P49146 whole entry): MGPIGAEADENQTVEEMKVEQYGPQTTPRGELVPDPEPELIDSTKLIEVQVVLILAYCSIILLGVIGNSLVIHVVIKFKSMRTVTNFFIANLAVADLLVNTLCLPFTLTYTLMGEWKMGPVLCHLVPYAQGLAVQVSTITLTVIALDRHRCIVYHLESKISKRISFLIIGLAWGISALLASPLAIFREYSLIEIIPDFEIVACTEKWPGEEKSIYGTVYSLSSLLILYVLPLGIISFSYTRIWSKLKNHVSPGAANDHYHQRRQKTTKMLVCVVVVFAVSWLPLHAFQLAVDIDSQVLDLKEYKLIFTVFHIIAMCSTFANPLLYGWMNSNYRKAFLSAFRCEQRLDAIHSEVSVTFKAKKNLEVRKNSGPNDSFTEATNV
Assay: not given
The experiment is classed as cell membranes, Membrane. The settings on record: kan-ts.
Regarding `O=C(O)c1cccnc1` [NIACIN], the IC50 entry is “Not Active”.

Consider `CNC(=C[N+](=O)[O-])NCCSCc1csc(CN(C)C)n1` [NIZATIDINE], for which the IC50 result is “Not Active”.

Take `C[C@]12C/C(=C/O)C(=O)C[C@@H]1CC[C@@H]1[C@@H]2CC[C@@]2(C)[C@H]1CC[C@]2(C)O` [OXYMETHOLONE]: the IC50 entry is reported as “Not Active”.

Turning to `CC(C)(CO)C(O)C(=O)NCCCO` (stereo not drawn) [PANTHENOL], the IC50 result is recorded as “Not Active”.

In the case of `OCCN1CCN(CCCN2c3ccccc3Sc3ccc(Cl)cc32)CC1` [PERPHENAZINE], the IC50 result was “Not Active”.

On to `CCCCC1C(=O)N(c2ccccc2)N(c2ccccc2)C1=O` [PHENYLBUTAZONE], for which the IC50 entry is given as “Not Active”.

For the compound `Cc1cccc(Nc2cc(Cl)nc(SCC(=O)O)n2)c1C` [PIRINIXIC ACID], the half-inhibitory concentration (IC50) entry is “Not Active”.

Regarding `CC[C@H](C)C(=O)O[C@H]1C[C@H](O)C=C2C=C[C@H](C)[C@H](CC[C@@H](O)C[C@@H](O)CC(=O)O)[C@H]21` [PRAVASTATIN], the IC50 result is reported as “Not Active”.

For the compound `CC(C)(Sc1cc(C(C)(C)C)c(O)c(C(C)(C)C)c1)Sc1cc(C(C)(C)C)c(O)c(C(C)(C)C)c1` [PROBUCOL], the IC50 entry was “Not Active”.

The target of a further experiment is Mu-type opioid receptor (Homo sapiens, UniProt P35372). Kind of experiment: DRUGMATRIX: Opiate mu (OP3, MOP) radioligand binding (ligand: [3H] Diprenorphine). Conditions: cho-k1; Not Active = under 50% inhibition at 10 µM. The experiment is classed as cell membranes, CHO-K1, Membrane.
Chain of Mu-type opioid receptor (P35372 whole entry): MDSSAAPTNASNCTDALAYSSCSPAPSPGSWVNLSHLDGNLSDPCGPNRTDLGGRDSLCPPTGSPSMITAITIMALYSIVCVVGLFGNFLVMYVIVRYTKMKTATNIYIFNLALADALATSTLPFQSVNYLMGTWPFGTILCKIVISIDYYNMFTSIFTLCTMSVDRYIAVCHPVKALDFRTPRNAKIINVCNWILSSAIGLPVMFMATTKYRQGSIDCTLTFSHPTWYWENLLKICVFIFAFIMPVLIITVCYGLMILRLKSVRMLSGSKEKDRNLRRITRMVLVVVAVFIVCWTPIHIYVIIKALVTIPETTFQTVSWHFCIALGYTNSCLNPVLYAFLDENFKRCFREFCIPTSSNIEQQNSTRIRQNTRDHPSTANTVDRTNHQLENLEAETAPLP
`O=C(O)c1cccnc1` [NIACIN]: the IC50 result is recorded as “Not Active”.

For `CNC(=C[N+](=O)[O-])NCCSCc1csc(CN(C)C)n1` [NIZATIDINE], the IC50 result is “Not Active”.

For the compound `C[C@]12C/C(=C/O)C(=O)C[C@@H]1CC[C@@H]1[C@@H]2CC[C@@]2(C)[C@H]1CC[C@]2(C)O` [OXYMETHOLONE], the IC50 entry is recorded as “Not Active”.

Consider `CC(C)(CO)C(O)C(=O)NCCCO` (stereo not drawn) [PANTHENOL], for which the IC50 result was “Not Active”.

As for `OCCN1CCN(CCCN2c3ccccc3Sc3ccc(Cl)cc32)CC1` [PERPHENAZINE], the IC50 entry is “Not Active”.

Take `CCCCC1C(=O)N(c2ccccc2)N(c2ccccc2)C1=O` [PHENYLBUTAZONE]: the IC50 result is “Not Active”.

Take `Cc1cccc(Nc2cc(Cl)nc(SCC(=O)O)n2)c1C` [PIRINIXIC ACID]: the IC50 entry was “Not Active”.

For `CC[C@H](C)C(=O)O[C@H]1C[C@H](O)C=C2C=C[C@H](C)[C@H](CC[C@@H](O)C[C@@H](O)CC(=O)O)[C@H]21` [PRAVASTATIN], the IC50 entry is on record as “Not Active”.

`CC(C)(Sc1cc(C(C)(C)C)c(O)c(C(C)(C)C)c1)Sc1cc(C(C)(C)C)c(O)c(C(C)(C)C)c1` [PROBUCOL]: the IC50 result was “Not Active”.

The next experiment addresses T2, C-X-C chemokine receptor type 1 (Homo sapiens, UniProt P25024).
T2 sequence (P25024 whole entry): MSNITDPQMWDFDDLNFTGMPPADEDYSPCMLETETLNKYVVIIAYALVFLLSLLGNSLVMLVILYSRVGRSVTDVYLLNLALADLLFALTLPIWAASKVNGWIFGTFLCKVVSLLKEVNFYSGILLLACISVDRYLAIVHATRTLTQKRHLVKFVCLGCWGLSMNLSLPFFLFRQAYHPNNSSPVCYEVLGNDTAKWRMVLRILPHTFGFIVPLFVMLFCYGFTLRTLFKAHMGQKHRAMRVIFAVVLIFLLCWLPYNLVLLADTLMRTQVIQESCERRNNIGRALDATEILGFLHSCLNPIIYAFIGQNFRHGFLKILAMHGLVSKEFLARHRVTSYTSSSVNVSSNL
Assay: not given
Conditions: not given
Consider `O=C(O)c1cccnc1` [NIACIN], for which the IC50 result was “Not Active”.

As to `CNC(=C[N+](=O)[O-])NCCSCc1csc(CN(C)C)n1` [NIZATIDINE], the IC50 entry is on record as “Not Active”.

For the compound `C[C@]12C/C(=C/O)C(=O)C[C@@H]1CC[C@@H]1[C@@H]2CC[C@@]2(C)[C@H]1CC[C@]2(C)O` [OXYMETHOLONE], the IC50 result is listed as “Not Active”.

Consider `CC(C)(CO)C(O)C(=O)NCCCO` (stereo not drawn) [PANTHENOL], for which the IC50 result is “Not Active”.

In the case of `OCCN1CCN(CCCN2c3ccccc3Sc3ccc(Cl)cc32)CC1` [PERPHENAZINE], the IC50 entry was “Not Active”.

For `CCCCC1C(=O)N(c2ccccc2)N(c2ccccc2)C1=O` [PHENYLBUTAZONE], the IC50 entry is listed as “Not Active”.

As for `Cc1cccc(Nc2cc(Cl)nc(SCC(=O)O)n2)c1C` [PIRINIXIC ACID], the IC50 entry was “Not Active”.

Regarding `CC[C@H](C)C(=O)O[C@H]1C[C@H](O)C=C2C=C[C@H](C)[C@H](CC[C@@H](O)C[C@@H](O)CC(=O)O)[C@H]21` [PRAVASTATIN], the IC50 result is reported as “Not Active”.

For `CC(C)(Sc1cc(C(C)(C)C)c(O)c(C(C)(C)C)c1)Sc1cc(C(C)(C)C)c(O)c(C(C)(C)C)c1` [PROBUCOL], the IC50 result is recorded as “Not Active”.
